Laboratory results from ChEMBL document CHEMBL5678795 (Eur J Pharmacol, 1999).
pIC50: −log10 of the molar value. Active and inactive are the calls of the source. The calls are words filed in the database; no cut-off is given here.

Columns and labels:
[1] = molecular target: T1, Endothelin-1 receptor (Homo sapiens) (UniProt P25101); assay: Displacement of [125I]endhothelin-1 from human ETA receptor stably expressed in CHO cells Membrane assessed as maximum binding at 25 degC at 0.25 to 1.0 nM incubated for 4 hrs by saturation binding assay; assay type: cell membranes; conditions: dose 0.25-1 nM
T1 sequence (whole entry): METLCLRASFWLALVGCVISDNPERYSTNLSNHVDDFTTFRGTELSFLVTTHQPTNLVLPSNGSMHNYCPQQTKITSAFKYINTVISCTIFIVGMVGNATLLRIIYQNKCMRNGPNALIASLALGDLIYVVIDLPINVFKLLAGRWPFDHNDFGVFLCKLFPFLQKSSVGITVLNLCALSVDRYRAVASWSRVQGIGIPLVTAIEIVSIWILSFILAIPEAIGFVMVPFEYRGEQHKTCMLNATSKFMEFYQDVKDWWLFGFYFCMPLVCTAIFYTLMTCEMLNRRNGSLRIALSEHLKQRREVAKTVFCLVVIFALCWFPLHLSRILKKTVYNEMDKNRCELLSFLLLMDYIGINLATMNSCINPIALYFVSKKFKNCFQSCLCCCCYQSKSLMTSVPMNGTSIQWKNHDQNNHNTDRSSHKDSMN

[2] = molecular target: Adenosine receptor A3 (Homo sapiens) (UniProt P0DMS8); assay: Displacement of [125I]AB-MECA from human recombinant adenosine A3 receptor at 10 uM incubated for 120 mins by radiometric based scintillation counter assay relative to control
[3] = molecular target: Type-2 angiotensin II receptor (Homo sapiens) (UniProt P50052); assay: Displacement of [125I]CGP 42112A from human recombinant angiotensin AT2 receptor at 10 uM incubated for 240 mins by radiometric based scintillation counter assay relative to control
[4] = molecular target: Bombesin receptor (Rattus norvegicus) (UniProt P52500+P24053+Q8K418); assay: Displacement of [125I][Tyr4]bombesin from rat brain Bombesin receptor at 10 uM incubated for 60 mins by radiometric based scintillation counter assay relative to control; assay type: tissue-based
Homo sapiens = organism: Homo sapiens; assay: Displacement of [125I]hCGRPalpha from calcitonin gene-related peptide (unknown origin) at 10 uM incubated for 90 mins by radiometric based scintillation counter assay relative to control
[5] = molecular target: D(1A) dopamine receptor (Homo sapiens) (UniProt P21728); assay: Displacement of [3H]SCH 23390 from human recombinant dopamine D1 receptor at 10 uM incubated for 60 mins by radiometric based scintillation counter assay relative to control
[6] = molecular target: T1, Endothelin-1 receptor (Homo sapiens); assay: Displacement of [125I]endothelin-1 from human recombinant endothelin ETA receptor at 10 uM incubated for 120 mins by radiometric based scintillation counter assay relative to control; conditions: filed as antagonist
[7] = molecular target: Interleukin-1 beta (Homo sapiens) (UniProt P01584); assay: Inhibition of Interleukin-1beta (unknown origin) at 10 uM by radioligand binding assay relative to control
[8] = molecular target: Histamine H1 receptor (Homo sapiens) (UniProt P35367); assay: Displacement of [3H]pyrilamine from human recombinant central-type histamine H1 receptor at 10 uM incubated for 60 mins by radiometric based scintillation counter assay relative to control
[9] = molecular target: Melatonin receptor type 1A (Homo sapiens) (UniProt P48039); assay: Displacement of [125I]2-iodomelatonin from human recombinant melatonin ML1 receptor at 10 uM incubated for 240 mins by radiometric based scintillation counter assay relative to control
[10] = molecular target: Muscarinic acetylcholine receptor M4 (Homo sapiens) (UniProt P08173); assay: Displacement of [3H]4-DAMP from human recombinant muscarinic M4 receptor at 10 uM incubated for 60 mins by radiometric based scintillation counter assay relative to control
[11] = molecular target: Neuromedin-K receptor (Homo sapiens) (UniProt P29371); assay: Displacement of [3H]SR 142801 from human recombinant NK3 tachykinin receptor at 10 uM incubated for 120 mins by radiometric based scintillation counter assay relative to control
[12] = molecular target: Delta-type opioid receptor (Homo sapiens) (UniProt P41143); assay: Displacement of [3H]DPDPE from human recombinant delta-Opioid receptor at 10 uM incubated for 60 mins by radiometric based scintillation counter assay relative to control; conditions: filed as antagonist
[13] = molecular target: Kappa-type opioid receptor (Homo sapiens) (UniProt P41145); assay: Displacement of [3H]U-69593 from human kappa-Opioid receptor at 10 uM incubated for 60 mins by radiometric based scintillation counter assay relative to control
[14] = molecular target: 5-hydroxytryptamine receptor 1A (Homo sapiens) (UniProt P08908); assay: Displacement of [3H]8-OH-DPAT from human recombinant 5-Hydroxytryptamine 1A at 10 uM incubated for 60 mins by radiometric based scintillation counter assay relative to control
[15] = molecular target: 5-hydroxytryptamine receptor 2C (Homo sapiens) (UniProt P28335); assay: Displacement of [3H]mesulergine from human recombinant 5-Hydroxytryptamine 2C at 10 uM incubated for 120 mins by radiometric based scintillation counter assay relative to control
[16] = molecular target: 5-hydroxytryptamine receptor 6 (Homo sapiens) (UniProt P50406); assay: Displacement of [3H]LSD from human recombinant 5-Hydroxytryptamine 6 at 10 uM incubated for 120 mins by radiometric based scintillation counter assay relative to control
[17] = molecular target: Vasopressin V2 receptor (Homo sapiens) (UniProt P30518); assay: Displacement of [3H]AVP from human recombinant Vasopressin V2 receptor at 10 uM incubated for 120 mins by radiometric based scintillation counter assay relative to control
Rattus norvegicus = organism: Rattus norvegicus; assay: Displacement of [3H]batrachotoxinin from rat brain Voltage-gated Na+ channel (site 2) at 10 uM incubated for 60 mins by radiometric based scintillation counter assay relative to control; assay type: tissue-based
Endothelin-1 receptor = molecular target: T2, Endothelin-1 receptor (Homo sapiens, UniProt P25101); assay: Antagonist activity at ETA receptor in endothelin-1 stimulated human Pericardial smooth muscle cell assessed as inhibition of […] in presence of myo-[3H] inositol by anion exchange chromatography; assay type: functional, cell-based
T2 sequence (P25101 whole entry): T1 sequence (whole entry)

[18] = molecular target: Endothelin receptor type B (Oryctolagus cuniculus, UniProt Q9N0W7); assay: Antagonist activity to ETB receptor in sarafotoxin-6c stimulated rabbit pulmonary artery assessed as induction of vessel ring contraction preincubated for 15 mins; assay type: functional, tissue-based; conditions: read-out: pA2 (converted)
[19] = Half life in Sprague-Dawley rat at 5 mg/kg, iv administered for 12 hrs by HPLC analysis; assay type: ADME, organism-based; conditions: in vivo
[20] = Plasma clearance in Sprague-Dawley rat at 5 mg/kg, iv administered for 12 hrs by reverse phase HPLC-UV analysis; assay type: ADME, organism-based
[21] = Cmax in Beagle dog at 5 mg/kg, po administered for 12 hrs by HPLC analysis; assay type: ADME, organism-based, Canis lupus familiaris; conditions: in vivo
[22] = Cmax in cynomolgus monkey at 5 mg/kg, po administered for 12 hrs by HPLC analysis; assay type: ADME, organism-based, Macaca fascicularis; conditions: in vivo
[23] = Volume of distribution at steady state during terminal phase in Sprague-Dawley rat at 5 mg/kg, iv administered for 12 hrs by reverse phase HPLC-UV analysis; assay type: ADME, organism-based; conditions: in vivo, read-out: Vbeta
[24] = system: Glutamate receptor ionotropic NMDA (PCP site); assay: Inhibition of PCP receptor (unknown origin) at 10 uM by radioligand binding assay relative to control; conditions: Homo sapiens

5-hydroxytryptamine receptor 6 (Homo sapiens), sequence (P50406 whole entry): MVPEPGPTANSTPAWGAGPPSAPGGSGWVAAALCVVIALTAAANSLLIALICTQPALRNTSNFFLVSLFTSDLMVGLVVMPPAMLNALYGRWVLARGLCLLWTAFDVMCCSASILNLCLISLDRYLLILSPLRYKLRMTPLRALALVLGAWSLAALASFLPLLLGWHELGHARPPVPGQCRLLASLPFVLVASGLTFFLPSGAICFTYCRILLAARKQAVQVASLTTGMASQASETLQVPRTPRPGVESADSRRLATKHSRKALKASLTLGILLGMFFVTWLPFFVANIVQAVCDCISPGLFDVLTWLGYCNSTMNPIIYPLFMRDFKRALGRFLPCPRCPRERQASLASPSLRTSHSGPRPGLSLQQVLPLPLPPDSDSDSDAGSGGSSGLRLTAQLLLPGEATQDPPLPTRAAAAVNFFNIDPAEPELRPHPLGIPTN
5-hydroxytryptamine receptor 1A (Homo sapiens), sequence (P08908 whole entry): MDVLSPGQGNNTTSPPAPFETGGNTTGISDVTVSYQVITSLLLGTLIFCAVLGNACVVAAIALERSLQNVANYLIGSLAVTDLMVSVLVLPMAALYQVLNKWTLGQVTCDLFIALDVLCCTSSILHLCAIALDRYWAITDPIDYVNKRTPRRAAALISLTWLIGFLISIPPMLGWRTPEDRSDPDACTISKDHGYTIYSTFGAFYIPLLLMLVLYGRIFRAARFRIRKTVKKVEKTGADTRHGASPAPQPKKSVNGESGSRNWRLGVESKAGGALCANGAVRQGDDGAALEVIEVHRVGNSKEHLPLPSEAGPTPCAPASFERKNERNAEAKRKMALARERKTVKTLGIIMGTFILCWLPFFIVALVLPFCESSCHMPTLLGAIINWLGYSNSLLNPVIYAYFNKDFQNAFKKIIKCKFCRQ
Neuromedin-K receptor (Homo sapiens), sequence (P29371 whole entry): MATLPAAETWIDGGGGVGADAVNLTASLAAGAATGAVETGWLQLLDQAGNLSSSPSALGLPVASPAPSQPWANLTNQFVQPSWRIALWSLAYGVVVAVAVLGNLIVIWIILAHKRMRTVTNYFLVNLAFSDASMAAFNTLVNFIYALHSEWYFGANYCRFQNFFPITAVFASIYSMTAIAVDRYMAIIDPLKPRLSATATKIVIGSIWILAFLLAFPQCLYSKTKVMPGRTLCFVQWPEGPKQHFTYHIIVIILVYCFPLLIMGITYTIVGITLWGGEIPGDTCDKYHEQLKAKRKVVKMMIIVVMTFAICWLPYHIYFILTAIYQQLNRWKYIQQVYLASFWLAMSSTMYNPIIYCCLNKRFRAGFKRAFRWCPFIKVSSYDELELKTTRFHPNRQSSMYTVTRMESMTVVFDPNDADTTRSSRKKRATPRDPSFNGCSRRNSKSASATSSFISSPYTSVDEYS
Bombesin receptor (Rattus norvegicus), sequence (P24053 whole entry, looked up): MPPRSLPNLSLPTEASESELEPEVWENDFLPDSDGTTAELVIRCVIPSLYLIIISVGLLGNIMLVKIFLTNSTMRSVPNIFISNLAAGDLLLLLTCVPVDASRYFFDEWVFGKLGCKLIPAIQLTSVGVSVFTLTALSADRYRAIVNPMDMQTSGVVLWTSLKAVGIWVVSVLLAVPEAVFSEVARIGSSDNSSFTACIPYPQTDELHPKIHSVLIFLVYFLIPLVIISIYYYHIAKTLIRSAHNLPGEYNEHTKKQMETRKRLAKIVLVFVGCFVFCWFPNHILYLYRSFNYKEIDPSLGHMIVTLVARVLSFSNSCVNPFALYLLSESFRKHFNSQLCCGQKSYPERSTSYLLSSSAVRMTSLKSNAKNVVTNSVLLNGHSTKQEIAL
Bombesin receptor (Rattus norvegicus), sequence (P52500 whole entry, looked up): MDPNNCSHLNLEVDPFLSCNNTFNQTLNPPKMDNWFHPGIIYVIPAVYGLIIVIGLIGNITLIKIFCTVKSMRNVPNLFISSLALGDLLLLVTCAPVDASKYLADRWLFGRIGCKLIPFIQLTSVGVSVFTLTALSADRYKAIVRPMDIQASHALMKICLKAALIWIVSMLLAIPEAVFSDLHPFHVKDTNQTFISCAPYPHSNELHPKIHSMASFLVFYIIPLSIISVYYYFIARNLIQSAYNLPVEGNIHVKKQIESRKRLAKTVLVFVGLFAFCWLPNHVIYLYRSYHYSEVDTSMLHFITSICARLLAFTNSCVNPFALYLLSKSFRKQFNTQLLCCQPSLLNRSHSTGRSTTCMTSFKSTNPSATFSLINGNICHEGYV
Bombesin receptor (Rattus norvegicus), sequence (Q8K418 whole entry, looked up): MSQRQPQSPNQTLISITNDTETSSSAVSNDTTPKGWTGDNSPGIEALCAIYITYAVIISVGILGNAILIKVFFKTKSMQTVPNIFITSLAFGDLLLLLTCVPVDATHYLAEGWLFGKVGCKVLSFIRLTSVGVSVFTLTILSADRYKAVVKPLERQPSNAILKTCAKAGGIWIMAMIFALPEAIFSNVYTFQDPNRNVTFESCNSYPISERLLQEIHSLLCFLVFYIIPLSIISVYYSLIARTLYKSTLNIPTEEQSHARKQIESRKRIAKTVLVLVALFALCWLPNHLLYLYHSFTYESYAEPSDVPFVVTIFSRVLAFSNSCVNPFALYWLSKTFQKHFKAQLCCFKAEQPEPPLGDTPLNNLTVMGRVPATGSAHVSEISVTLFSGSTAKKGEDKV
5-hydroxytryptamine receptor 2C (Homo sapiens), sequence (P28335 whole entry): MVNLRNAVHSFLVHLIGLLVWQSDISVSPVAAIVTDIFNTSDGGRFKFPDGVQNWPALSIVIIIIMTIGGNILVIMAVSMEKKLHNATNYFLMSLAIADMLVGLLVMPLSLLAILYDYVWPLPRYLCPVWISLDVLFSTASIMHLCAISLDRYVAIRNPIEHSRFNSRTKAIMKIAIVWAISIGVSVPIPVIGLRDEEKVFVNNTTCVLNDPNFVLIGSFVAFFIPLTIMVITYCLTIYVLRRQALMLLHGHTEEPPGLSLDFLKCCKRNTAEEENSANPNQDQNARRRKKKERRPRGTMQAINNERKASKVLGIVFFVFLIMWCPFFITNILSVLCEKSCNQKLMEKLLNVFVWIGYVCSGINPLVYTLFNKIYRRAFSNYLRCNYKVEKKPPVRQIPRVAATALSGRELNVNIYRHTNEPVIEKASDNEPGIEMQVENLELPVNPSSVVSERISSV
Delta-type opioid receptor (Homo sapiens), sequence (P41143 whole entry): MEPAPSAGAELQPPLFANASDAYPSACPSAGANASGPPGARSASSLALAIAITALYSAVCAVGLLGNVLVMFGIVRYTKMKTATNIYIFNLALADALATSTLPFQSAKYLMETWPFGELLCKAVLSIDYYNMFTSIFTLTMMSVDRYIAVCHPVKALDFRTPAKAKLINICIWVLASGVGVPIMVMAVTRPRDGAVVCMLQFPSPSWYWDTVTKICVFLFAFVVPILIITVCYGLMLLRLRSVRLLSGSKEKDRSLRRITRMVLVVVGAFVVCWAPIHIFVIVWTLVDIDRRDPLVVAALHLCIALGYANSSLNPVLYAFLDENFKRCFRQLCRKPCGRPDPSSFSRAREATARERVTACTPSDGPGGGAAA
Vasopressin V2 receptor (Homo sapiens), sequence (P30518 whole entry): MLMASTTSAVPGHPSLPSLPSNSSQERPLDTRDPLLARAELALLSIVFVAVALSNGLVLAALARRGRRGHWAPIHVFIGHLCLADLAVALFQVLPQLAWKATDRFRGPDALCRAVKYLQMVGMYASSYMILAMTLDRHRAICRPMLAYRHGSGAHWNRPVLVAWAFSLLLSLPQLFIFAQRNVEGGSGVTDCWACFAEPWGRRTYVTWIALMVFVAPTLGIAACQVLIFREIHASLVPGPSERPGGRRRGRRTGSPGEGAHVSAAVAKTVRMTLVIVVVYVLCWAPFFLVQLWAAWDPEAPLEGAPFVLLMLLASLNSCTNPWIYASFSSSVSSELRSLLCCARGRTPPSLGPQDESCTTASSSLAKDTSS
Kappa-type opioid receptor (Homo sapiens), sequence (P41145 whole entry): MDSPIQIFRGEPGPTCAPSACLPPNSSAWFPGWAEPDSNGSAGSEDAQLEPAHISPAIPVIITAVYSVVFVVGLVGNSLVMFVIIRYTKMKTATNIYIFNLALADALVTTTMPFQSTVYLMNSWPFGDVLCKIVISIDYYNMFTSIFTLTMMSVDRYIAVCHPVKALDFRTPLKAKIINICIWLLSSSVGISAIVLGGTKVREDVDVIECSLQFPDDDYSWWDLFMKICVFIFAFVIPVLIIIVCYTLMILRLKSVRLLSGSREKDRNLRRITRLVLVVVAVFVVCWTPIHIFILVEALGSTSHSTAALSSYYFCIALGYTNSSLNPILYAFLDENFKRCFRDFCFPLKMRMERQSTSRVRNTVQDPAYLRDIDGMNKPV
Endothelin receptor type B, sequence (Q9N0W7 whole entry): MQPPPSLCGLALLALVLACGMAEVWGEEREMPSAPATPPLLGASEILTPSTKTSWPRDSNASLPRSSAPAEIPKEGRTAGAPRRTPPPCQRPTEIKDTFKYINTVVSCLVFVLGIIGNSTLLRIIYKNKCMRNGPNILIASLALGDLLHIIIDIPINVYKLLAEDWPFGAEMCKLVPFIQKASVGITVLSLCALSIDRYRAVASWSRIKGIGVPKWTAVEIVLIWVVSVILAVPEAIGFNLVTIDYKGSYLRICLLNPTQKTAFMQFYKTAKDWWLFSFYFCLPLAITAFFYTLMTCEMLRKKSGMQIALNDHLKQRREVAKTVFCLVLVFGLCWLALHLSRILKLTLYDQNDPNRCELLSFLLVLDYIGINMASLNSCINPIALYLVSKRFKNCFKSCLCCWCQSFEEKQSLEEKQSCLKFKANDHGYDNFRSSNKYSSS
Interleukin-1 beta (Homo sapiens), sequence (P01584 117-269 limits assumed): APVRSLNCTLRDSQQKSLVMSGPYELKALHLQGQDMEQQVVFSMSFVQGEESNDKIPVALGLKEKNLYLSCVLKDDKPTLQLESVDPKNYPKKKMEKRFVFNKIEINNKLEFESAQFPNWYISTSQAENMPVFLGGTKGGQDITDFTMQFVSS

CCCCN(CCCC)C(=O)CN1[C@H](c2cc(OC)c3c(c2)OCO3)C[C@@H](C(=O)O)[C@@H]1CC(C)(C)CCC
Bmax [1]: inactive
inhibition [2]: 32%
inhibition [3]: < 10%
inhibition [4]: < 10%
inhibition (Homo sapiens): < 10%
inhibition [5]: 14%
inhibition [6]: 98%
inhibition [7]: < 10%
inhibition [8]: < 10%
inhibition [9]: 12%
inhibition [10]: < 10%
inhibition [11]: < 10%
inhibition [12]: 62%
inhibition [13]: 28%
inhibition [14]: < 10%
inhibition [15]: < 10%
inhibition [16]: < 10%
inhibition [17]: < 10%
inhibition (Rattus norvegicus): < 10%
pIC50 (Endothelin-1 receptor): 8.52
Kb [18]: 26.9 µM
half-life [19]: 1.6 h
clearance [20]: 25 mL/min/kg
Cmax [21]: 1970 ng/mL
Cmax [22]: 1100 ng/mL
Vd [23]: 3.7 L/kg
inhibition [24]: < 10%
